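Interpolation was linear, between the two tested concentrations surrounding the appropriate level; five concentrations were tested over 48 hours in 96-well plates. GI50 marks 50% less growth. TGI: concentration producing complete growth inhibition.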
Assays:
Assay in all cases: NCI anticancer screen, dose series, 48 h
RPMI-8226 leukemia = test system: RPMI-8226 leukemia
HOP-92 NSCLC = test system: HOP-92 NSCLC
OVCAR-5 ovarian = test system: OVCAR-5 ovarian
LOX IMVI melanoma = test system: LOX IMVI melanoma
NCI-H23 lung = test system: NCI-H23 lung
MALME-3M melanoma = test system: MALME-3M melanoma
HT29 colon = test system: HT29 colon
UACC-62 melanoma = test system: UACC-62 melanoma
HL-60(TB) leukemia = test system: HL-60(TB) leukemia
SR leukemia = test system: SR leukemia

O=C(CN1C(=O)S/C(=C\C(Cl)=C\c2ccccc2)C1=O)NCCCn1ccnc1
GI50 (RPMI-8226 leukemia): 1.78 µM
TGI (RPMI-8226 leukemia): 6.74 µM
GI50 (HOP-92 NSCLC): 1.76 µM
TGI (HOP-92 NSCLC): 4.46 µM
GI50 (OVCAR-5 ovarian): 2.4 µM
TGI (OVCAR-5 ovarian): 6.47 µM
GI50 (LOX IMVI melanoma): 1.37 µM
TGI (LOX IMVI melanoma): 2.75 µM
GI50 (NCI-H23 lung): 2.26 µM
TGI (NCI-H23 lung): 6.88 µM
GI50 (MALME-3M melanoma): 1.82 µM
TGI (MALME-3M melanoma): 4.9 µM
GI50 (HT29 colon): 2.18 µM
TGI (HT29 colon): 6.07 µM
GI50 (UACC-62 melanoma): 1.67 µM
TGI (UACC-62 melanoma): 3.73 µM

O=C1/C(=C\c2ccccc2)c2ccccc2N1/N=C\c1ccccc1
TGI (RPMI-8226 leukemia): > 100 µM
TGI (HOP-92 NSCLC): > 100 µM
TGI (OVCAR-5 ovarian): > 100 µM
TGI (LOX IMVI melanoma): > 100 µM
TGI (NCI-H23 lung): > 100 µM
TGI (MALME-3M melanoma): > 100 µM
TGI (HT29 colon): > 100 µM
TGI (UACC-62 melanoma): > 100 µM

CNC(=O)c1cncc(/C=C/c2c(Cl)cccc2Cl)c1
GI50 (RPMI-8226 leukemia): > 25 µM
TGI (RPMI-8226 leukemia): > 25 µM
GI50 (HOP-92 NSCLC): 2.31 µM
TGI (HOP-92 NSCLC): > 25 µM
GI50 (OVCAR-5 ovarian): > 25 µM
TGI (OVCAR-5 ovarian): > 25 µM
GI50 (LOX IMVI melanoma): > 19.6 µM
TGI (LOX IMVI melanoma): > 25 µM
GI50 (HL-60(TB) leukemia): > 25 µM
TGI (HL-60(TB) leukemia): > 25 µM
GI50 (NCI-H23 lung): > 25 µM
TGI (NCI-H23 lung): > 25 µM
GI50 (MALME-3M melanoma): 12.9 µM
TGI (MALME-3M melanoma): > 25 µM
GI50 (HT29 colon): 15.1 µM
TGI (HT29 colon): > 25 µM
GI50 (UACC-62 melanoma): > 19.8 µM
TGI (UACC-62 melanoma): > 25 µM

O=c1[nH]c2c(c3ccccc13)CCc1ccccc1-2
TGI (RPMI-8226 leukemia): > 100 µM
TGI (SR leukemia): > 100 µM
TGI (OVCAR-5 ovarian): > 100 µM
TGI (NCI-H23 lung): > 100 µM
TGI (MALME-3M melanoma): > 100 µM
TGI (HT29 colon): > 100 µM

NS(=O)(=O)c1ccc(NC(=O)c2cccc3c(Nc4ccc(S(N)(=O)=O)cc4)c4ccccc4nc23)cc1
TGI (RPMI-8226 leukemia): 39.1 µM
TGI (HOP-92 NSCLC): > 100 µM
TGI (OVCAR-5 ovarian): > 100 µM
TGI (LOX IMVI melanoma): > 100 µM
TGI (HL-60(TB) leukemia): 96.8 µM
TGI (NCI-H23 lung): > 100 µM
TGI (MALME-3M melanoma): > 100 µM
TGI (HT29 colon): 68.4 µM
TGI (UACC-62 melanoma): > 100 µM

Clc1ccc(/C=C/c2nc(Cl)c(-c3ccc(Cl)cc3)c(Cl)n2)cc1
TGI (RPMI-8226 leukemia): > 100 µM
TGI (HOP-92 NSCLC): > 100 µM
TGI (OVCAR-5 ovarian): > 100 µM
TGI (LOX IMVI melanoma): > 100 µM
TGI (HL-60(TB) leukemia): > 100 µM
TGI (NCI-H23 lung): > 100 µM
TGI (MALME-3M melanoma): > 100 µM
TGI (HT29 colon): > 100 µM
TGI (UACC-62 melanoma): > 100 µM

C=C(C)C(=O)O[C@H]1CC2=CC(CC(C)=C[C@H]3OC(=O)C(=C)C13)OC2=O (stereo not given in full)
TGI (RPMI-8226 leukemia): 9.21 µM
TGI (HOP-92 NSCLC): 32.4 µM
TGI (OVCAR-5 ovarian): > 100 µM
TGI (LOX IMVI melanoma): 53.7 µM
TGI (HL-60(TB) leukemia): 11.8 µM
TGI (NCI-H23 lung): > 100 µM
TGI (MALME-3M melanoma): 40.7 µM
TGI (HT29 colon): 43.2 µM
TGI (UACC-62 melanoma): 38.8 µM

COc1ccc(C=C2C(=O)NC(=O)NC2=O)cc1OCc1ccccc1
GI50 (RPMI-8226 leukemia): 17.8 µg/mL
TGI (RPMI-8226 leukemia): 48.8 µg/mL
GI50 (HOP-92 NSCLC): 57.2 µg/mL
GI50 (LOX IMVI melanoma): 52.5 µg/mL
GI50 (NCI-H23 lung): 31.7 µg/mL
GI50 (MALME-3M melanoma): 54.5 µg/mL
GI50 (HT29 colon): 31.7 µg/mL

CC(=O)O[C@H]1CC[C@@]2(C)C(=C/C(=N\[N+](=O)[O-])[C@H]3C4CCC([C@H](C)CCCC(C)C)[C@@]4(C)CCC32)C1 (stereo not given in full)
TGI (RPMI-8226 leukemia): > 100 µM
TGI (HOP-92 NSCLC): > 100 µM
TGI (OVCAR-5 ovarian): > 100 µM
TGI (LOX IMVI melanoma): > 100 µM
TGI (HL-60(TB) leukemia): > 100 µM
TGI (NCI-H23 lung): > 100 µM
TGI (MALME-3M melanoma): > 100 µM
TGI (HT29 colon): > 100 µM
TGI (UACC-62 melanoma): > 100 µM

Nc1ccc(C2=Nc3ccccc3SC(c3ccccc3O)C2)cc1 (stereo not given)
TGI (RPMI-8226 leukemia): 49.7 µM
TGI (OVCAR-5 ovarian): > 100 µM
TGI (LOX IMVI melanoma): > 100 µM
TGI (HL-60(TB) leukemia): 62.7 µM
TGI (NCI-H23 lung): > 100 µM
TGI (MALME-3M melanoma): > 100 µM
TGI (HT29 colon): > 100 µM
TGI (UACC-62 melanoma): > 100 µM

COC1C(O)C(C)OC(O[C@@H]2C[C@H]3CC[C@@H]4[C@H](CC[C@]5(C)[C@@H](C6=CC(=O)OC6)CC[C@]45O)[C@@]3(C)[C@H](O)C2)C1O (stereo not given in full)
TGI (RPMI-8226 leukemia): 0.0725 µM
TGI (HOP-92 NSCLC): > 100 µM
TGI (OVCAR-5 ovarian): 0.365 µM
TGI (LOX IMVI melanoma): 0.233 µM
TGI (HL-60(TB) leukemia): 0.145 µM
TGI (NCI-H23 lung): 0.0231 µM
TGI (MALME-3M melanoma): 0.119 µM
TGI (HT29 colon): 0.472 µM
TGI (UACC-62 melanoma): 0.647 µM

OC1c2ccccc2C2C(O)c3ccccc3C12 (stereo not given)
TGI (RPMI-8226 leukemia): > 100 µM
TGI (HOP-92 NSCLC): > 100 µM
TGI (OVCAR-5 ovarian): > 100 µM
TGI (LOX IMVI melanoma): > 100 µM
TGI (HL-60(TB) leukemia): > 100 µM
TGI (NCI-H23 lung): > 100 µM
TGI (MALME-3M melanoma): > 100 µM
TGI (HT29 colon): > 100 µM
TGI (UACC-62 melanoma): > 100 µM

CCOC(=O)c1cn(CC)c2cc3c(cc2c1=O)SCS3
TGI (RPMI-8226 leukemia): > 100 µM
TGI (HOP-92 NSCLC): > 100 µM
TGI (OVCAR-5 ovarian): > 100 µM
TGI (LOX IMVI melanoma): > 100 µM
TGI (HL-60(TB) leukemia): > 100 µM
TGI (NCI-H23 lung): > 100 µM
TGI (MALME-3M melanoma): > 100 µM
TGI (HT29 colon): > 100 µM
TGI (UACC-62 melanoma): > 100 µM

COc1ccc(CN=C(N)N=C(N)N)cc1OC
GI50 (OVCAR-5 ovarian): > 1000 µM
TGI (OVCAR-5 ovarian): > 1000 µM
GI50 (LOX IMVI melanoma): > 1000 µM
TGI (LOX IMVI melanoma): > 1000 µM
GI50 (HL-60(TB) leukemia): 706 µM
TGI (HL-60(TB) leukemia): > 1000 µM
GI50 (NCI-H23 lung): 522 µM
TGI (NCI-H23 lung): > 1000 µM
GI50 (MALME-3M melanoma): 365 µM
TGI (MALME-3M melanoma): > 1000 µM
GI50 (HT29 colon): > 1000 µM
TGI (HT29 colon): > 1000 µM
GI50 (UACC-62 melanoma): 558 µM
TGI (UACC-62 melanoma): > 1000 µM

Nc1ccccc1C#C/C=C\C#Cc1ccccc1F
GI50 (RPMI-8226 leukemia): 2.66 µM
TGI (RPMI-8226 leukemia): 23.8 µM
GI50 (HOP-92 NSCLC): 17.9 µM
TGI (HOP-92 NSCLC): > 100 µM
GI50 (OVCAR-5 ovarian): 9.31 µM
TGI (OVCAR-5 ovarian): 23.9 µM
GI50 (LOX IMVI melanoma): 4.07 µM
TGI (LOX IMVI melanoma): 14.2 µM
GI50 (NCI-H23 lung): 10.4 µM
TGI (NCI-H23 lung): 26.6 µM
GI50 (MALME-3M melanoma): 2.62 µM
TGI (MALME-3M melanoma): 13.9 µM
GI50 (HT29 colon): 5.06 µM
TGI (HT29 colon): 47.6 µM
GI50 (UACC-62 melanoma): 7.72 µM
TGI (UACC-62 melanoma): 21 µM

COc1ccc(/C=N\O[Si](C)(C)C(C)(C)C)cc1O[Si](C)(C)C(C)(C)C
TGI (RPMI-8226 leukemia): 39 µM
TGI (HOP-92 NSCLC): 37.6 µM
TGI (OVCAR-5 ovarian): 39 µM
TGI (LOX IMVI melanoma): 36.5 µM
TGI (HL-60(TB) leukemia): 38.1 µM
TGI (NCI-H23 lung): 37.1 µM
TGI (MALME-3M melanoma): 37.4 µM
TGI (HT29 colon): 36.2 µM
TGI (UACC-62 melanoma): 40.2 µM
